Results reported in PubChem BioAssay AID248 (DTP/NCI, 2004).
Several values for one entry are separate records, joined by “and”; a condition that tells them apart may be missing. Equal entries are not always repeated. Inconclusive results and toxic doses are left out. No stated cut-off is given here; in the data, active means T/C of 150% or more; inactive means T/C below 125%.

Tested on: L1210 leukemia ip in BDF1 mice, survival T/C
Test: NCI In Vivo Anticancer Drug Screen. Data for tumor model L1210 Leukemia (intraperitoneal) in B6D2F1 (BDF1) mice
Settings: endpoint: mean survival time, higher = longer survival
Outline: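 In this screen, tumor-bearing mice given compound are compared to those given vehicle, and their survival values are reported as a treated-to-control quotient.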

[1] = dose: 100.0 mg/kg/injection, schedule: Q04DX002 (ip), vehicle: saline with Tween-80
[2] = dose: 200.0 mg/kg/injection, schedule: Q04DX002 (ip), vehicle: saline with Tween-80
[3] = dose: 400.0 mg/kg/injection, schedule: Q04DX002 (ip), vehicle: saline with Tween-80
[4] = dose: 100.0 mg/kg/injection, schedule: Q04DX003 (ip), vehicle: saline with Tween-80
[5] = dose: 200.0 mg/kg/injection, schedule: Q04DX003 (ip), vehicle: saline with Tween-80
[6] = dose: 400.0 mg/kg/injection, schedule: Q04DX003 (ip), vehicle: saline with Tween-80
[7] = dose: 50.0 mg/kg/injection, schedule: Q01DX009 (ip), vehicle: saline with Tween-80
[8] = dose: 100.0 mg/kg/injection, schedule: Q01DX009 (ip), vehicle: saline with Tween-80
[9] = dose: 200.0 mg/kg/injection, schedule: Q01DX009 (ip), vehicle: saline with Tween-80
[10] = dose: 100.0 mg/kg/injection, schedule: Q01DX001 (ip), vehicle: saline with Tween-80
[11] = dose: 200.0 mg/kg/injection, schedule: Q01DX001 (ip), vehicle: saline with Tween-80
[12] = dose: 400.0 mg/kg/injection, schedule: Q01DX001 (ip), vehicle: saline with Tween-80
[13] = dose: 100.0 mg/kg/injection, schedule: Q01DX001 (ip), vehicle: saline

Measured: T/C

CNC(=S)N/N=C(/C)CCC/C(C)=N/NC(=S)NC
inactive: dose: 1.56 mg/kg/injection, schedule: Q03HX024 (ip), vehicle: Klucel (hydroxypropylcellulose) (HPC) 95 % of control | dose: 3.12 mg/kg/injection, schedule: Q01DX009 (ip), vehicle: Klucel (hydroxypropylcellulose) (HPC) 96 % of control | dose: 3.12 mg/kg/injection, schedule: Q03HX024 (ip), vehicle: Klucel (hydroxypropylcellulose) (HPC) 102 % of control | dose: 6.25 mg/kg/injection, schedule: Q01DX009 (ip), vehicle: Klucel (hydroxypropylcellulose) (HPC) 96 % of control | dose: 6.25 mg/kg/injection, schedule: Q03HX024 (ip), vehicle: Klucel (hydroxypropylcellulose) (HPC) 97 % of control | dose: 6.25 mg/kg/injection, schedule: Q04DX003 (ip), vehicle: Klucel (hydroxypropylcellulose) (HPC) 108 % of control | dose: 12.5 mg/kg/injection, schedule: Q01DX009 (ip), vehicle: Klucel (hydroxypropylcellulose) (HPC) 92 % of control | dose: 12.5 mg/kg/injection, schedule: Q03HX024 (ip), vehicle: Klucel (hydroxypropylcellulose) (HPC) 95 % of control | dose: 12.5 mg/kg/injection, schedule: Q04DX003 (ip), vehicle: Klucel (hydroxypropylcellulose) (HPC) 101 % of control | dose: 25.0 mg/kg/injection, schedule: Q01DX009 (ip), vehicle: Klucel (hydroxypropylcellulose) (HPC) 101 % of control | dose: 25.0 mg/kg/injection, schedule: Q03HX024 (ip), vehicle: Klucel (hydroxypropylcellulose) (HPC) 92 % of control | dose: 25.0 mg/kg/injection, schedule: Q04DX003 (ip), vehicle: Klucel (hydroxypropylcellulose) (HPC) 103 % of control | dose: 50.0 mg/kg/injection, schedule: Q01DX009 (ip), vehicle: Klucel (hydroxypropylcellulose) (HPC) 98 % of control | dose: 50.0 mg/kg/injection, schedule: Q04DX003 (ip), vehicle: Klucel (hydroxypropylcellulose) (HPC) 101 % of control | dose: 100.0 mg/kg/injection, schedule: Q04DX003 (ip), vehicle: Klucel (hydroxypropylcellulose) (HPC) 103 % of control | dose: 200.0 mg/kg/injection, schedule: Q04DX003 (ip), vehicle: Klucel (hydroxypropylcellulose) (HPC) 93 % of control | dose: 400.0 mg/kg/injection, schedule: Q04DX003 (ip), vehicle: Klucel (hydroxypropylcellulose) (HPC) 108 % of control

COC1OCC(Cl)C(O)C1OS(C)(=O)=O (stereo not drawn)
inactive: [1] 96 % of control | [2] 100 % of control | [3] 104 % of control

CC1(Br)Cc2ccccc2C1=O (stereo not drawn)
inactive: [4] 107 % of control | [5] 94 % of control | [6] 103 % of control

OC1CCCCC1(c1ccccc1)c1ccccc1 (stereo not drawn)
inactive: [7] 94 % of control | [8] 91 % of control | [9] 91 % of control

S=c1cc(-c2ccccc2)ss1
inactive: [8] 98 % of control | [4] 93 % of control and 102 % of control | [9] 89 % of control | [5] 91 % of control and 100 % of control | dose: 400.0 mg/kg/injection, schedule: Q01DX009 (ip), vehicle: saline with Tween-80 96 % of control | [6] 96 % of control and 91 % of control

OC1CCC(CC2CCCCC2)CC1 (stereo not drawn)
inactive: [5] 92 % of control | [6] 91 % of control

CC(=O)OC1CCCC1OC(=O)c1ccc([N+](=O)[O-])cc1 (stereo not drawn)
inactive: dose: 100.0 mg/kg/injection, schedule: Q04DX003 (ip), vehicle: other 106 % of control | dose: 200.0 mg/kg/injection, schedule: Q04DX003 (ip), vehicle: other 96 % of control | dose: 400.0 mg/kg/injection, schedule: Q04DX003 (ip), vehicle: other 95 % of control

C(CC1CCCC1)=C(CCC1CCCC1)CCC1CCCC1
inactive: dose: 50.0 mg/kg/injection, schedule: Q04DX002 (ip), vehicle: saline with Tween-80 103 % of control | [1] 92 % of control | [2] 95 % of control | [3] 92 % of control

CCN(CC)CCCC(C)Nc1cc(C)nc(Nc2nc3cc(Cl)c(Cl)cc3[nH]2)n1 (stereo not drawn)
inactive: dose: 5.0 mg/kg/injection, schedule: Q01DX009 (ip), vehicle: saline with Tween-80 96 % of control | dose: 10.0 mg/kg/injection, schedule: Q01DX009 (ip), vehicle: saline with Tween-80 93 % of control

CN1CCCCC(=N\O)/C(=N/O)CCCC1
inactive: dose: 50.0 mg/kg/injection, schedule: Q01DX001 (ip), vehicle: carboxymethylcellulose (CMC) 89 % of control | dose: 100.0 mg/kg/injection, schedule: Q01DX001 (ip), vehicle: carboxymethylcellulose (CMC) 89 % of control | dose: 200.0 mg/kg/injection, schedule: Q01DX001 (ip), vehicle: carboxymethylcellulose (CMC) 104 % of control

Nc1ccnc2n[nH]nc12
inactive: [10] 111 % of control | [4] 101 % of control | [11] 110 % of control | [5] 100 % of control | [12] 104 % of control | [6] 103 % of control

CCOC(=O)CCC(NC(=O)c1cccc(N(C)C=O)c1)C(=O)OCC (stereo not drawn)
inactive: [7] 100 % of control | [8] 92 % of control | [9] 93 % of control

O=[N+]([O-])c1ccc(Oc2cccc([N+](=O)[O-])c2)cc1
inactive: dose: 222.0 mg/kg/injection, schedule: Q01DX Z (ip), vehicle: methylcellulose (MC) 90 % of control | dose: 333.0 mg/kg/injection, schedule: Q01DX Z (ip), vehicle: methylcellulose (MC) 95 % of control | dose: 500.0 mg/kg/injection, schedule: Q01DX Z (ip), vehicle: methylcellulose (MC) 92 % of control

COC1(NC(=O)CCCC(N)C(=O)O)C(=O)N2C(C(=O)O)=C(COC(N)=O)CSC21 (stereo not drawn)
inactive: dose: 100.0 mg/kg/injection, schedule: Q04DX002 (ip), vehicle: saline 103 % of control | dose: 200.0 mg/kg/injection, schedule: Q04DX002 (ip), vehicle: saline 122 % of control | dose: 400.0 mg/kg/injection, schedule: Q04DX002 (ip), vehicle: saline 107 % of control

CC1(C)N=C(N)N=C(N)N1c1cccc(OCCCC#N)c1
inactive: [13] 101 % of control

Clc1ccccc1-n1cc(-c2ccccc2)nn1
inactive: dose: 100.0 mg/kg/injection, schedule: Q04DX002 (ip), vehicle: Klucel (hydroxypropylcellulose) (HPC) 114 % of control | dose: 200.0 mg/kg/injection, schedule: Q04DX002 (ip), vehicle: Klucel (hydroxypropylcellulose) (HPC) 108 % of control | dose: 400.0 mg/kg/injection, schedule: Q04DX002 (ip), vehicle: Klucel (hydroxypropylcellulose) (HPC) 108 % of control

Cc1ccc(S(=O)(=O)Nc2ccccc2N=Cc2ccc([N+](=O)[O-])cc2[N+](=O)[O-])cc1
inactive: dose: 75.0 mg/kg/injection, schedule: Q01DX001 (ip), vehicle: carboxymethylcellulose (CMC) 97 % of control | dose: 150.0 mg/kg/injection, schedule: Q01DX001 (ip), vehicle: carboxymethylcellulose (CMC) 104 % of control | dose: 300.0 mg/kg/injection, schedule: Q01DX001 (ip), vehicle: carboxymethylcellulose (CMC) 92 % of control

CSc1nnc(SC)s1
inactive: [4] 104 % of control | [5] 93 % of control | [6] 93 % of control

O=C1N(O)C23CCCC(Br)C2ON=C3C12CCCCC2 (stereo not drawn)
inactive: [10] 112 % of control | [4] 106 % of control | [11] 112 % of control | [5] 98 % of control | [12] 104 % of control | [6] 95 % of control

O=C1c2ccccc2C(=O)N1/N=C/c1cc(Cl)cc(Cl)c1O
inactive: dose: 75.0 mg/kg/injection, schedule: Q01DX001 (ip), vehicle: saline 91 % of control | dose: 150.0 mg/kg/injection, schedule: Q01DX001 (ip), vehicle: saline 93 % of control | dose: 300.0 mg/kg/injection, schedule: Q01DX001 (ip), vehicle: saline 93 % of control

O=C1C=C2CCN(C(=O)c3ccccc3)CC2O1 (stereo not drawn)
inactive: [13] 100 % of control | dose: 200.0 mg/kg/injection, schedule: Q01DX001 (ip), vehicle: saline 105 % of control | dose: 400.0 mg/kg/injection, schedule: Q01DX001 (ip), vehicle: saline 100 % of control
